Data set [1] can be described thus: physchem. The data set is classed as physicochemical. An excerpt:
The invention includes within its scope pharmaceutical compositions containing at least one of the above-mentioned antibiotic compounds and a pharmaceutically acceptable carrier. The compositions may also contain other active antibacterial agents. The compositions may be made up in any pharmaceutical form appropriate for the route of administration in question. Such compositions are exemplified by solid compositions for oral administration, such as tablets, capsules, pills, powders and granules; liquid compositions for oral administration such as solutions, suspensions, syrups and elixirs; preparations for parenteral administration such as sterile solutions, suspensions or emulsions; and preparations for topical administration such as gels, creams, ointments or salves. […] In 40% prophylene glycol in water (V/V), the solubility of HPB4 free base is greater than about 200 mg/ml. […] The solubility of HPB4·K is about 300 mg/ml. The solubility of HPB4·2HCl is about 600 mg/ml.
The solubility of the potassium salt is about 300 mg/ml in water.

Data set [2] has as its system S. aureus (strain 1, Tables 1 and 2). Put plainly: mouse protection assay, i.p. infection with S. aureus, single s.c. dose. The class given is in vivo. The settings on record: mice infected intraperitoneally with 46.8 LD50's, dosed once subcutaneously one hour after infection, 50% survival. The protocol: (§1) The in vivo activity of the CWI-785 complex and its components and hydrolysis products was confirmed by administering selected CWI-785 antibiotics to mice infected with various gram-positive pathogens. In one representative assay, in which mice infected intraperitoneally with 46.8 LD ₅₀ʹs of S. aureus (strain 1, Tables 1 and 2) were dosed once, subcutaneously one hour after infection, the following ED₅₀ʹs (mg/kg) (the ED₅₀ gives the amount of antibiotic necessary for 50% survival) were observed: CWI-785B: 2.4, CWI-785C: 3.1, CWI-785: 3.8, HPB3: 0.9, vancomycin: 0.7. In a second representative assay carried out as above except that mice were infected with 3.17 LD₅₀ʹs of S. faecalis (strain 9, Table 2), the following ED₅₀ʹs were observed: HPB3 hydrochloride: 1.6, HPB4 hydrochloride: 1.6, vancomycin: 2.2, teicoplanin: 1.3.

Data set [3] deals with S. faecalis (strain 9, Table 2). Put plainly: mouse protection assay, i.p. infection with S. faecalis, single s.c. dose. The settings on record: mice infected with 3.17 LD50's, dosed once subcutaneously one hour after infection. The data set is classed as in vivo. How it is done: as §1
Data set [4] in a line: pH of aqueous solution. The class given is physicochemical. The settings on record: 100 mg/ml aqueous solution.

Converted amounts (≈) assume the structure as drawn. Like-named read-outs stand apart in the source and are kept apart here.

For the compound `CNC(C(=O)NC1C(=O)NC(CCSC)C(=O)NC2C(=O)NC3C(=O)NC(C(=O)NC(C(=O)O)c4cc(O)cc(O)c4-c4cc3ccc4O)C(O[C@H]3C[C@@H](N)[C@@H](O)[C@H](C)O3)c3ccc(c(Cl)c3)Oc3cc2cc(c3O)Oc2ccc(cc2)C1O)c1ccc(O)cc1` (some centres unmarked) [HPB4], the solubility in data set [1] (40% peg-400 in water, organic solvent or mixture, solubility) is about 250 mg/mL (≈ 194 mM); in data set [1] (40% propylene glycol in water, organic solvent or mixture, solubility), over 200 mg/mL.
For the compound `CNC(C(=O)NC1C(=O)NC(CCSC)C(=O)NC2C(=O)NC3C(=O)NC(C(=O)NC(C(=O)O)c4cc(O)cc(O)c4-c4cc3ccc4O)C(O[C@H]3C[C@@H](N)[C@@H](O)[C@H](C)O3)c3ccc(c(Cl)c3)Oc3cc2cc(c3O)Oc2ccc(cc2)C1O)c1ccc(O)cc1` (some centres unmarked) [HPB4·2HCl], the solubility result in data set [1] was “about 600 mg/ml”.
As for `CNC(C(=O)NC1C(=O)NC(CC[S+](C)[O-])C(=O)NC2C(=O)NC3C(=O)NC(C(=O)NC(C(=O)O)c4cc(O)cc(O)c4-c4cc3ccc4O)C(OC3CC(N)C(O)C(C)O3)c3ccc(c(Cl)c3)Oc3cc2cc(c3O)Oc2ccc(cc2)C1O)c1ccc(O)cc1` (centres unmarked) [HPB3], the ED₅₀ in data set [2] was determined as 0.9 mg/kg.
`CNC(C(=O)NC1C(=O)NC(CC[S+](C)[O-])C(=O)NC2C(=O)NC3C(=O)NC(C(=O)NC(C(=O)O)c4cc(O)cc(O)c4-c4cc3ccc4O)C(OC3CC(N)C(O)C(C)O3)c3ccc(c(Cl)c3)Oc3cc2cc(c3O)Oc2ccc(cc2)C1O)c1ccc(O)cc1.Cl` (centres unmarked) [HPB3 hydrochloride] registered an ED₅₀ in data set [3] of 1.6 mg/kg.
On to `CNC(C(=O)NC1C(=O)NC(CCSC)C(=O)NC2C(=O)NC3C(=O)NC(C(=O)NC(C(=O)O)c4cc(O)cc(O)c4-c4cc3ccc4O)C(O[C@H]3C[C@@H](N)[C@@H](O)[C@H](C)O3)c3ccc(c(Cl)c3)Oc3cc2cc(c3O)Oc2ccc(cc2)C1O)c1ccc(O)cc1` (some centres unmarked) [HPB4·K], for which the solubility in data set [1] (solubility) is about 300 mg/mL (≈ 232 mM); in data set [1] (water, solubility) it was about 300 mg/mL (≈ 232 mM). In data set [4], this compound returned a pH of 9.29.
For the compound `CN[C@H](CC(C)C)C(=O)N[C@H]1C(=O)N[C@@H](CC(N)=O)C(=O)N[C@H]2C(=O)N[C@H]3C(=O)N[C@H](C(=O)N[C@H](C(=O)O)c4cc(O)cc(O)c4-c4cc3ccc4O)[C@H](O)c3ccc(c(Cl)c3)Oc3cc2cc(c3O[C@@H]2O[C@H](CO)[C@@H](O)[C@H](O)[C@H]2O[C@H]2C[C@](C)(N)[C@H](O)[C@H](C)O2)Oc2ccc(cc2Cl)[C@H]1O` [vancomycin, reference compound], the ED50 in data set [2] (Staphylococcus aureus, sc, 1 h, read-out: ED₅₀) is 0.7 mg/kg; in data set [3] (Enterococcus faecalis, sc, 1 h, read-out: ED₅₀), 2.2 mg/kg.
In data set [3], `CNC(C(=O)NC1C(=O)NC(CCSC)C(=O)NC2C(=O)NC3C(=O)NC(C(=O)NC(C(=O)O)c4cc(O)cc(O)c4-c4cc3ccc4O)C(OC3CC(N)C(O)C(C)O3)c3ccc(c(Cl)c3)Oc3cc2cc(c3O)Oc2ccc(cc2)C1O)c1ccc(O)cc1.Cl` (centres unmarked) [HPB4 hydrochloride] returned an ED₅₀ of 1.6 mg/kg.

By solubility is commonly meant how much of the substance goes into solution per volume.
